Test results reported in patent publication US9650405B2, “Modified sophorolipids as oil solubilizing agents” (Polytechnic Institute of New York University, priority 2010, dated 2017).

Legend:
[1] = Lemon oil solubilization, sonication, droplet size by dynamic light scattering; assay type: physicochemical; conditions: for average droplet sizes after one month: lemon oil emulsions; for Emulsion Droplet Size / Emulsion Droplet Size, bottom emulsion layer / Emulsion Droplet Size, top emulsion layer: 1 weight-%
Method: MSL's used in this example are SL-hexyl ester (16), SL-octyl ester SL (17), and SL-dodecyl ester (18). To test the MSL capacity for lemon oil solubilization, the volume ratio of water to lemon oil, the concentration of surfactant, and the homogenization time (using a sonicator as the means of homogenization) were varied. Concentration of surfactant is calculated on a w/w basis relative to the mass of water being used. To form emulsions, the MSL or other surfactant is first dissolved in the water, oil is added to the solution, and finally the contents of the water/surfactant+oil system is sonicated. Subsequently, the emulsion is allowed to settle for 24 hours at 25° C. before measurements or visual observations are made.
To evaluate the stability of lemon oil solubilization, photographs of emulsions were recorded daily (after the initial 24 hours). Visual observations consisted of assessing solution clarity, extent of creaming and whether oil separation occurs. After selected time periods measurement of emulsion droplet size was performed by dynamic light scattering, which gives an average droplet size in the solution. […] If the emulsion had creamed (separated into two discreet emulsion layers) the average droplet size for each emulsion layer was determined. The results of this study are listed in Table 6, where the first number represents average droplet size in the top emulsion layer and the second represents the average droplet size in the bottom emulsion layer. […] A better performing emulsifier for this study is defined as functioning to form emulsions with smaller average particle size after the aging period.

[2] = Crude oil clearing/displacement activity; conditions: 20 μL of 1 mg/mL solution
Method: Oil cleaning assays were performed using Louisiana Crude, Arabian Light Crude, and Prudhoe Bay Crude as the oil phase. In one study, the oil clearing/displacement activity of MSLs were assessed using a crude oil layer on top of sea water in order to simulate oil spill type conditions. Sea water (20 mL) was transferred to plastic Petri dishes and 20 μL of a crude oil type was added on top of the water to create an oil layer. Subsequently, a 20 μL aliquot of MSL solution (1 mg/mL) was added dropwise to the top of the oil layer. The instantaneous formation of an oil clearing zone as well as the diameter of the clearing zone was determined as a function of the dispersant used. […] Furthermore, the oil displacement activity of SL-ethyl ester and SL-butyl ester was slightly higher than Triton-X-100 for Arabian Light crude.

[3] = Crude oil emulsification activity (turbidity at 610 nm); conditions: emulsifier 1 mg/mL
Method: Emulsification activity was assessed using Louisiana Crude, Arabian Light Crude, and Prudhoe Bay Crude as the oil phase. A 2 mL solution with emulsifier concentration of 1 mg/mL was prepared. A crude oil (10 mg) was added to the emulsifier aqueous solution, the mixture was vortexed for one minute and the emulsified mixture was allowed to stand for 20 minutes. Emulsification activity was determined by measuring turbidity of the emulsion mixture in a spectrophotometer at 610 nm. The results obtained using SL-ethyl ester, SL-butyl ester, the natural sophorolipid mixture and Triton X-100 as emulsifiers are expressed as D610 and are listed in Table 8. […] Furthermore, a remarkable improvement in emulsification activity was obtained for SL-butyl ester relative to the natural sophorolipid mixture. These comparative results for emulsification of Louisiana Crude, Arabian Light Crude, and Prudhoe Bay Crude oil phase could not be anticipated by one skilled in the art.

[4] = Emulsion stability based on phase separation; assay type: physicochemical
Method: The emulsion was obtained by homogenizing the oil and water mixture and was allowed to settle at room temperature for 24 hours. […] Then, this mixture was homogenized at 13,000 rpm for 2 minutes. Thereafter, the resulting emulsion was left unagitated at 25° C. for 24 hours. Surfactants which give a larger emulsion phase are denoted as having higher emulsion effectiveness (Process Safety and Environment protection, 2005, 83, 38-46). […] Thus, unexpectedly, that longer alkyl chains, at least up to butyl and hexyl, provided improved interfacial stability at the paraffin oil/water interface. […] Apparently, ester bonds of SL-esters are less disruptive to organization at the oil water interface than amide bonds of SL-amides. […] The acidic SL (3) gave an 8% emulsion layer, much lower than the MSL examples given herein. Similarly, the natural SL (1) mixture gave a 10% emulsion layer. This performance is also far below that of SL-butyl amide (24), hexyl amide (25), butyl ester (8) and hexyl ester (16).
After homogenized at 13,000 rpm for 2 minutes, the emulsions were kept at room temperature and separation of the respective oil, emulsion and water layers was recorded for up to 1 month.

[5] = Emulsion droplet size distribution, Coulter LS 230 analyzer; assay type: physicochemical; conditions: paraffin oil-to-water 7:3 v/v, 25° C.
Method: Emulsified oil droplet size (average and standard deviation) was measured after suitable dilution of the emulsion phase using a Coulter LS 230 analyzer. […] Relative to natural and lactonic SL, selected MSLs show improved properties as emulsifiers on paraffin oil.
After being aged for 3-months, emulsified oil droplet size (average and standard deviation) was measured after suitable dilution of the emulsion phase using a Coulter LS 230 analyzer and the results are listed in Table 5. […] However, increasing the surfactant concentration from 1 to 2% did result in substantially smaller emulsion-phase droplet sizes. […] This is evidence that MSL's can stabilize oil phases greatly decreasing their tendency to undergo coalescence. […] It follows that the results of 3-month aging studies support the utility of selected MSLs for formation and stabilization of oil-in-water emulsions of paraffin oil phases. One skilled in the art would expect that the ability of these MSLs to stabilize paraffin oil phases teaches that they would also stabilize oil phases of similar structure.

[6] = Emulsification of paraffin and rapeseed oil by transalkylidenation MSLs; assay type: physicochemical; conditions: for change in emulsions during a 6-week aging period: 1 weight % surfactant, water:paraffin oil 1:1 (v/v), FIG. 22
Method: Mixtures of oil (paraffin or rapeseed) and water, in a 1:1 volume ratio, were prepared. MSL compounds 39, 40, and 41 at 1 weight % relative to water were each assessed as emulsifiers. Each mixture was agitated for 5 min using a homogenizer. […] This is in contrast to the studies above where sophorolipid esters and amides consisting of one hydrophobic arm formed oil-in-water mixtures. For compound 43 that has relatively more hydrophobic character than MSL compounds 39. 40 and 41, paraffin oil and water (1:1 volume ratio) were combined and MSL compound 43 (2 weight % to water) was then added. The mixture was agitated by a homogenizer for 5 minutes. […] The emulsion was stable during the 3 weeks it was monitored (FIG. 24). […] The cloudy parts are emulsified water, and the continuous phase is the oil. […] Condition: 15% (v/v) of water in rapeseeds oil, 1 weight % (relative to water) of compound 40 were mixed and stirred using a homogenizer for 5 minutes (scale bar: 100 μm).

[7] = lemon oil/water 1/99, sonication 60 sec, 1 Week
[8] = lemon oil/water 1/99, sonication 60 sec, 5 Weeks
[9] = lemon oil/water 5/95, sonication 60 sec, 1 Week
[10] = lemon oil/water 5/95, sonication 60 sec, 5 Weeks
[11] = Arabian Light Crude on sea water
[12] = oil (paraffin or rapeseed) and water 1:1 volume ratio, 1 weight % relative to water
[13] = lemon oil/water 1/99, sonication 120 sec, 1 Week
[14] = paraffin oil and water 1:1 volume ratio, 2 weight % to water

CCCCCCCCOC(=O)CCCCCCCC=CCCCCCCC(C)OC1OC(CO)C(O)C(O)C1OC1OC(CO)C(O)C(O)C1O (stereo not drawn) [Compound 17, SL-octyl ester]
average droplet sizes after one month [1]: below 1 μm | Emulsion Droplet Size [1, 7]: 92 nm | Emulsion Droplet Size ([1]; lemon oil/water 1/99, sonication 60 sec, 2 Days): 52 nm | Emulsion Droplet Size [1, 8]: 183 nm | Emulsion Droplet Size [1, 9]: 179 nm | Emulsion Droplet Size ([1]; lemon oil/water 5/95, sonication 60 sec, 2 Days): 167 nm | Emulsion Droplet Size [1, 10]: 325 nm

Triton X-100 [reference compound]
Oil displacement activity (diameter of the clearing zone) [2, 11]: 6.05 ± 0.07 cm | Oil displacement activity (diameter of the clearing zone) ([2]; Louisiana Crude on sea water): 5.5 ± 0.21 cm | Oil displacement activity (diameter of the clearing zone) ([2]; Prudhoe Bay Crude on sea water): 7.8 ± 0.07 cm | Emulsification activity (D610) ([3]; Arabian Crude): 0.17 | Emulsification activity (D610) ([3]; Louisiana Crude): 0.28 | Emulsification activity (D610) ([3]; Prudhoe Crude): 0.49

CCCCCCCCCCCCOS(=O)(=O)[O-].[Na+] [SDS, Sodium dodecyl sulfate, reference compound]
Oil displacement activity (diameter of the clearing zone) [2, 11]: 0.65 ± 0.21 cm | Oil displacement activity (diameter of the clearing zone) ([2]; Louisiana Crude on sea water): 0.5 ± 0.14 cm | Oil displacement activity (diameter of the clearing zone) ([2]; Prudhoe Bay Crude on sea water): 1.2 ± 0.42 cm | emulsion layer, start ([4]; oil/water 7/3, 2%-by-weight, start of aging): 90% | emulsion layer percentage ([4]; paraffin oil/water 5/5, 2%-by-weight emulsifier, after 24 hours at 25° C.): 70% | Average droplet size ([5]; 0.5 weight %, 24 hours): 2.3 ± 0.2 μm | Average droplet size ([5]; 0.5 weight %, aged 3-months): 3.1 ± 0.1 μm | Average droplet size ([5]; 1 weight %, 24 hours): 2.1 ± 0.1 μm | Average droplet size ([5]; 1 weight %, aged 3-months): 2.7 ± 0.1 μm | Average droplet size ([5]; 2 weight %, 24 hours): 1.6 ± 0.2 μm | Average droplet size ([5]; 2 weight %, aged 3-months): 2.0 ± 0.1 μm

CCCCOC(=O)/C=C/CCCCCCCC(=O)OC1C(COC(C)=O)OC(OC2C(OC(C)CCCCCC/C=C/C(=O)OCCCC)OC(COC(C)=O)C(O)C2O)C(O)C1O (stereo not drawn) [Compound 41]
emulsion type [6, 12]: water-in-oil emulsions | time the emulsions were stable (monitored period) [6, 12]: ≥ 6 weeks

COC(=O)/C=C/CCCCCCCC(=O)OC1C(COC(C)=O)OC(OC2C(OC(C)CCCCCC/C=C/C(=O)OC)OC(COC(C)=O)C(O)C2O)C(O)C1O (stereo not drawn) [Compound 39]
change in emulsions during a 6-week aging period [6]: no substantial change | emulsion type [6, 12]: water-in-oil emulsions | time the emulsions were stable (monitored period) [6, 12]: ≥ 6 weeks

Rhamnolipid [reference compound]
Emulsion Droplet Size [1, 13]: 379 nm

CCCCCCCCCCCCOC(=O)/C=C/CCCCCCCC(=O)OC1C(COC(C)=O)OC(OC2C(OC(C)CCCCCC/C=C/C(=O)OCCCCCCCCCCCC)OC(COC(C)=O)C(O)C2O)C(O)C1O (stereo not drawn) [Compound 43]
change in emulsions during a 6-week aging period [6]: no substantial change | emulsion type [6, 14]: water-in-oil emulsion | time the emulsion was stable (monitored period) [6, 14]: ≥ 3 weeks

TWEEN ® 60 [reference compound]
Emulsion Droplet Size ([1]; lemon oil/water 1/99, sonication 120 sec, 1 Month): 233 nm | Emulsion Droplet Size [1, 13]: 173 nm

CCOC(=O)/C=C/CCCCCCCC(=O)OC1C(COC(C)=O)OC(OC2C(OC(C)CCCCCC/C=C/C(=O)OCC)OC(COC(C)=O)C(O)C2O)C(O)C1O (stereo not drawn) [Compound 40]
emulsion stability after 6 weeks ([6]; 15% (v/v) of water in rapeseeds oil, 1 weight % relative to water): emulsion remained stable | emulsion type [6, 12]: water-in-oil emulsions | time the emulsions were stable (monitored period) [6, 12]: ≥ 6 weeks

CCCCCCCCCCCCOC(=O)CCCCCCCC=CCCCCCCC(C)OC1OC(CO)C(O)C(O)C1OC1OC(CO)C(O)C(O)C1O (stereo not drawn) [Compound 18, SL-dodecyl ester]
average droplet sizes after one month [1]: below 1 μm | Emulsion Droplet Size [1, 7]: 238 nm | Emulsion Droplet Size [1, 8]: 277 nm | Emulsion Droplet Size, bottom emulsion layer [1, 9]: 327 nm | Emulsion Droplet Size, top emulsion layer [1, 9]: 389 nm | Emulsion Droplet Size, bottom emulsion layer [1, 10]: 208 nm | Emulsion Droplet Size, top emulsion layer [1, 10]: 551 nm
